This is an account of results in patent publication US6222035A, “[1,2,4] triazolo [1,5-C] pyrimidine derivatives” (Kyowa Hakko Kogyo Co., Ltd., priority 1997, dated 2001).

For one assay, the target named is T1, adenosine A2A receptor (Rattus norvegicus, UniProt P30543).
T1 construct: from tissue; host or cells: rat corpus striatum, washed membrane suspension
As to the kind of experiment: Adenosine receptor binding activity (adenosine A2A receptor binding test), 3H-CGS 21680 binding. As to conditions: 2 h, read-out: A2A receptor inhibition ratio (%); for inhibition at 0.1 µM: 10^-7 M; for inhibition at 0.01 µM: 10^-8 M. The procedure, abridged: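 Rat corpus striatum membranes (5 mg wet tissue/mL in 50 mM Tris-HCl pH 7.7, 10 mM MgCl2, adenosine deaminase) incubated with 4.0 nM 3H-CGS 21680 and test compound for 120 min at 25 °C, then filtered and counted. Nonspecific binding defined with 100 μM CPA; % inhibition of specific binding calculated.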

The test system of assay [1] is CGS 21680-induced catalepsy in mice. Put plainly: Activity on CGS 21680-induced Catalepsy. Conditions: 10 mg/kg oral; for Total score (catalepsy): 10 animals, maximum 50 points, control 48; for Number of Animals showing remission: catalepsy score 4 points or less in 10 cases; for inhibition in vivo at 10 mg/kg: Mus musculus, CGS 21680-induced catalepsy, read-out: Remission ratio (%). Type of assay: in vivo, mouse (male ddY). The procedure, abridged:
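Male ddY mice (5 weeks, 10 per group) received CGS 21680 10 μg/20 μl intracerebroventricularly; test compounds given orally at 10 mg/kg in 0.3% Tween 80 suspension. Catalepsy scored 1 h after dosing on a 4.5 cm bar; total group score (maximum 50) compared with control; ≤4 per animal counted as remission.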

Assay [2] deals with haloperidol-induced catalepsy in mice. Put plainly: Activity on haloperidol-induced Catalepsy. Type of assay: in vivo, mouse (male ddY). Conditions: 10 mg/kg oral; for Total score (catalepsy): 10 animals, maximum 50 points, control 50; for Number of Animals showing remission: catalepsy score 4 points or less in 10 cases; for Remission ratio (%): haloperidol-induced catalepsy. The procedure: Activity on haloperidol-induced Catalepsy
Parkinson's disease is a disease based on the degeneration and cell death of the nigrostriatal dopaminergic neuron. When haloperidol (dopamine D1/D2 antagonist) is administered, catalepsy is induced by the block of postsynaptic D2 receptor. This haloperidol-induced catalepsy is known as a classic model in which symptoms of Parkinson's disease are produced by drug administration [European Journal of Pharmacology, 182: 327 (1990) and U.S. Pat. No. 3,991,207].
This test was carried out using 10 animals per group of male ddY mice of 5 week age (22 to 24 g in body weight, Japan SLC). Haloperidol (manufacturedby Janssen) was suspended in 0.3% CMC and administered intraperitoneally into mice at a dose of 1.0 mg/kg. Each test compound was used by mixing it with Tween 80 and then suspending it in distilled water for injection (manufactured by Otsuka Pharmaceutical). Also, L-DOPA (manufactured by Kyowa Hakko Kogyo Co., Ltd.) and benserazide HCl (manufactured by Kyowa Hakko Kogyo Co., Ltd.) were used by suspending them in 0.3% CMC. […] All of the test compounds were administered orally in a dose of 10 mg/kg, and 100 mg/kg of L-DOPA and 25 mg/kg of benserazide were used in combination as a control drug and administered by intraperitoneal injection. The catalepsy score was evaluated by the judging criteria shown in the above-described Table 3.
The effect was judged by total catalepsy scores of 10 animals in one group (the maximum is 50 points). When the total score was 40 points or less, the activity of drugs was judged positive. The number of animals showing remission of catalepsy was expressed by the number of cases in which the catalepsy score was 4 points or less in 10 cases. The catalepsy remission ratio was expressed as the percentage of the total score in the test compound-administered group to the total score in the control group.

The subject of assay [3] is clonidine-induced aggressive behavior in mice. As to the kind of experiment: Activity on Clonidine-induced Aggressive Behavior. Type of assay: in vivo, mouse (male ddY). Conditions: 10 mg/kg po; for Number of attacks (count; average ± S.E.M.), test compound group: *: p < 0.05, 10 animals. As for the experimental part: Activity on Clonidine-induced Aggressive Behavior
Effect of test compounds to increase aggressive behavior induced by the intraperitoneal injection of clonidine [European Journal of Pharmacology, 29: 374 (1968)] was examined.
This test was carried out using 2 animals per group of male ddY mice of 20 to 25 g in body weight (Japan SLC). Each test compound was used by mixing it with Tween 80 and then suspending it in distilled water for injection (manufactured by Otsuka Pharmaceutical), and clonidine hydrochloride (manufactured by Sigma Co.) was used by dissolving it in physiological saline (manufactured by Otsuka Pharmaceutical). […] The number of aggressive behavior of each mouse was measured for 30 minutes immediately after the administration of clonidine. The effect was judged by comparing values of the number of aggressive behavior in the control and those in test compound-administered groups (significance test: Student t-test).

T1 sequence (P30543 whole entry): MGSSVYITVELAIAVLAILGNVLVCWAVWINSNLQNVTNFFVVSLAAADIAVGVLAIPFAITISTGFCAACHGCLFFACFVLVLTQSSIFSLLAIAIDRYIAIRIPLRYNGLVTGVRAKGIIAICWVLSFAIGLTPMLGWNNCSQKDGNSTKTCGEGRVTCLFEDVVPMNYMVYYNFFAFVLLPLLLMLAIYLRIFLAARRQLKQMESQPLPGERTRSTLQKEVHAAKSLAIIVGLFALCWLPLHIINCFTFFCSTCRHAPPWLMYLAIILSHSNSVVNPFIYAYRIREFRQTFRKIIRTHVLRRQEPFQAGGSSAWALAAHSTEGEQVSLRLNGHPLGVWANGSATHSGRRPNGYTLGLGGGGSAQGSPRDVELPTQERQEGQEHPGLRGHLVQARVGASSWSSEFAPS

For the compound `COc1cccc(OC)c1Oc1cc2nc(-c3ccco3)nn2c(N)n1` [Compound 32, 5-Anino-7-(2,6-dimethoxyphenoxy)-2-(2-furyl)[1,2,4]triazolo[1,5-c]pyrimidine], at adenosine A2A receptor, the inhibition at 0.1 µM amounted to 89% and the inhibition at 0.01 µM was 71%. Further, in assay [1], the “Total score (catalepsy)” value came out at 21, the “Number of Animals showing remission” value is given as 9 and the inhibition in vivo at 10 mg/kg amounted to 54%. Besides, in assay [2], the “Total score (catalepsy)” value is 37, the “Number of Animals showing remission” value stood at 5 and the “Remission ratio (%)” value is listed as 26%.
`Nc1nc(N2CCN(CCc3ccccc3)CC2)cc2nc(-c3ccco3)nn12` [Compound 46, 5-Amino-2-(2-furyl)-7-[4-(2-phenylethyl)piperazinyl][1,2,4]triazolo[1,5-c]pyrimidine]: on adenosine A2A receptor, the inhibition at 0.1 µM came out at 79% and the inhibition at 0.01 µM was determined as 35%. In assay [1], the “Total score (catalepsy)” value came out at 9, the “Number of Animals showing remission” value is 10 and the inhibition in vivo at 10 mg/kg amounted to 78%. Besides, in assay [2], the “Total score (catalepsy)” value was determined as 13, the “Number of Animals showing remission” value was 10 and the “Remission ratio (%)” value is on record as 74%.
Take `COc1ccc(Oc2cc3nc(-c4ccco4)nn3c(N)n2)cc1OC` [Compound 31, 5-Amino-7-(3,4-dimethoxyphenoxy)-2-(2-furyl)[1,2,4]triazolo[1,5-c]pyrimidine]: in assay [1], the “Total score (catalepsy)” value amounted to 28, the “Number of Animals showing remission” value is recorded as 9 and the inhibition in vivo at 10 mg/kg was 42%. For the same compound, in assay [2], the “Total score (catalepsy)” value is 15, the “Number of Animals showing remission” value is on record as 10 and the “Remission ratio (%)” value worked out at 70%. In assay [3], the “Number of attacks in test compound group/number of attacks in control group” value turned out to be 9.1 and the “Number of attacks (count; average ± S.E.M.), test compound group” value is reported as 38.1 ± 13.06 count.
Take `CN1CCN(c2cc3nc(-c4ccco4)nn3c(N)n2)CC1` [Compound 40, 5-Amino-2-(2-furyl)-7-(4-methylpiperazinyl)[1,2,4]triazolo[1,5-c]pyrimidine]: at adenosine A2A receptor, the inhibition at 0.1 µM is 50% and the inhibition at 0.01 µM was 11%. In assay [1], the “Total score (catalepsy)” value came to 20, the “Number of Animals showing remission” value is on record as 10 and the inhibition in vivo at 10 mg/kg turned out to be 56%. Also, in assay [2], the “Total score (catalepsy)” value came out at 18, the “Number of Animals showing remission” value came to 7 and the “Remission ratio (%)” value was 64%. In assay [3], the “Number of attacks in test compound group/number of attacks in control group” value is on record as 7.6 and the “Number of attacks (count; average ± S.E.M.), test compound group” value was determined as 22.00 ± 6.44 count.
With `Nc1nc(N2CCOCC2)cc2nc(-c3ccco3)nn12` [Compound 39, 5-Amino-2-(2-furyl)-7-morpholino[1,2,4]triazolo[1.5-c]pyrimidine], in assay [1], the “Total score (catalepsy)” value is 20, the “Number of Animals showing remission” value was 9 and the inhibition in vivo at 10 mg/kg is 56%. Also, in assay [3], the “Number of attacks in test compound group/number of attacks in control group” value is listed as 8.1 and the “Number of attacks (count; average ± S.E.M.), test compound group” value is on record as 9.70 ± 3.42 count.
With `Nc1nc(N2CCN(Cc3ccccc3)CC2)cc2nc(-c3ccco3)nn12` [Compound 42, 5-Amino-7-(4-benzylpiperazinyl)2-(2-furyl)[1,2,4]triazolo[1,5-c]pyrimidine], on adenosine A2A receptor, the inhibition at 0.1 µM was determined as 82% and the inhibition at 0.01 µM amounted to 43%. Also, in assay [1], the “Total score (catalepsy)” value came out at 12, the “Number of Animals showing remission” value is 9 and the inhibition in vivo at 10 mg/kg turned out to be 72%. Besides, in assay [2], the “Total score (catalepsy)” value is recorded as 1, the “Number of Animals showing remission” value came out at 10 and the “Remission ratio (%)” value is 98%.
Consider `CCOC(=O)c1cnc(N)n2nc(-c3ccco3)nc12` [Compound 55, 5-Amino-8-ethoxycarbonyl-2-(2-furyl)[1,2,4]triazolo[1,5-c]pyrimidine], for which, in assay [1], the “Total score (catalepsy)” value is recorded as 29, the “Number of Animals showing remission” value was determined as 9 and the inhibition in vivo at 10 mg/kg came out at 36%. Also, in assay [2], the “Total score (catalepsy)” value was 35, the “Number of Animals showing remission” value turned out to be 5 and the “Remission ratio (%)” value is listed as 30%.
